Values joined by “and” are separate entries in the source; they are usually repeats but may differ in a detail not shown here. Equal entries are not always repeated.
Tests used:
[1] = system: S. aureus; conditions: Adv. Funct. Mater. 2013, 23, 4801-4809; cited from earlier work
[2] = system: S. aureus; test: Minimal inhibitory concentration (MIC) of PAR in solution, 24 h in MHB medium with S. aureus; format: cell-based, Staphylococcus aureus; conditions: for times less active than PAR100 or PAR200 chains (from MICs in solution): per chain; for bacterial growth inhibition in solution: PAR 1 μM
Method: PAR with 10, 30, 100 or 200 arginine residues per chain were tested. Each PAR was incubated 24 h at 37° C. in 300 μL of MHB medium with S. aureus (A620=0.001). Pathogen growth of 0% corresponds to medium with antibiotics (and without PAR) and 100% to medium without PAR. Each value corresponds to the mean value of 3 individual experiments (3 samples per experiment and condition) and error bars correspond to standard deviations. For each concentration, the first column represents the normalized pathogen growth of S. aureus for PAR10, the 2nd column for PAR30, the third column for PAR100 and the fourth for PAR200.
Staphylococcus aureus (S. aureus, ATCC 25923) strains were used to assess the antibacterial properties of the test samples. Bacterial strain was cultured aerobically at 37° C. in a Mueller Hinton Broth (MHB) medium (Merck, Germany), pH 7.4. One colony was transferred to 10 mL of MHB medium and incubated at 37° C. for 20 h, to provide a final density of 10^6 CFU·mL^−1. To obtain bacteria in the mid logarithmic phase of growth, the absorbance at 620 nm of overnight culture was adjusted of 0.001.
In the following the inventors of the present invention wanted to further elucidate the underlying mechanism that confer to the coatings of the invention the strong inhibitory property on the surface and in the supernatant. As an example the (PAR30/HA)24 coating was further investigated. Accordingly, the minimal inhibitory concentration (MIC) of PAR in solution was determined using bacterial assay as described in Experimental Section. […] Finally for PAR at concentrations of 0.01 mg·mL^−1, inhibition of 100% was shown only for PAR30. Longer or shorter PAR chains (PAR10, PAR100 or PAR200) inhibits only partially (less than 40%) S. aureus growth. […] This reasoning is valid when PAR concentration values are expressed in mass (mg·mL^−1) thus it is related to the number of arginine monomers. However when the graph is plotted with concentrations in μM (and thus proportional in number of chains), which means that concentration is related to number of chains, different interpretation can be made (Data not shown). […] Moreover the MIC100 values obtained for PAR30, PAR100 or PAR200 ranges at very low concentrations (between 1 and 2 μM) which is remarkable when compared to well-known antimicrobial peptides (for example 30 μM for cateslytin with S. aureus, see Adv. Funct. Mater. 2013, 23, 4801-4809). PAR is thus a powerful candidate to fight against S. aureus.

[3] = Fluorescence recovery after photobleaching (FRAP) of PAR-FITC in (PAR/HA)24 multilayers; format: physicochemical; conditions: PAR-FITC in (PAR/HA)24 multilayer, hydrochloride
Method: The diffusion coefficient, D, and the proportion of mobile molecules, p, was measured for (PAR/HA)24 multilayers containing PAR-FITC by performing photobleaching experiments (FRAP, Fluorescence Recovery After Photobleaching).
A glass slide coated with the multilayer was introduced in a home-made sample holder and immerged in 200 μl of Tris-NaCl buffer. One circular regions (4.4 μm in radius and referred as “R4” in an image of 35 μm×35 μm or 10.6 μm in radius and referred as “R10” in an image of 85 μm×85 μm) were exposed for 700 msec to the laser light set at its maximum power (λ=488 nm). Then, the recovery of the fluorescence in the bleached area was observed over time. Observations were carried out with a Zeiss LSM 710 microscope (Heidelberg, Germany) using a 20× objective (Zeiss, Plan Apochromat).
Then the inventors investigated if the bactericidal activity of the PAR30/HA multilayer is related to the mobility of these chains in the films. Indeed, it is known that the exponential character of a multilayer is related to the diffusion ability of at least one of its constituents in and out of the film during each deposition step. They first determined the mobility of the different chains, PAR10, PAR30, PAR100 and PAR200 in the (PAR/HA)24 multilayer by using FRAP method. […] Recovery of fluorescence appears very fast for PAR10 and PAR30 compare to PAR100 or PAR200. From these curves we can deduce the percentage of mobile chains over the timescale of the experiments. It clearly appears that PAR10 and PAR30 chains are more mobile (between 85 to 90% of mobile fraction) than the PAR100 (only 63% of mobile fraction). The largest chains PAR200 correspond to the slowest with about 12% of the population which is mobile (FIG. 8). Accordingly, the fraction of mobile chains dramatically decreases when the chain length increases from 30 to 100 or 200 residues.

[4] = Release of PAR-FITC from (PAR30/HA)24 into the supernatant; format: physicochemical; conditions: after 24 h, from (PAR30/HA)24 built with PAR-FITC, 37° C.
Method: For the first experiment, a multilayer coating (PAR30/HA)24 was built by using PAR-FITC. Release experiments were performed at 37° C. during 24 h in presence of MHB medium or a S. aureus/MHB solution (A620=0.001). 300 μL of mineral oil were added on the top of the supernatant to prevent any evaporation during the monitoring. The release of PAR-FITC in solution was performed by measuring the fluorescence of the supernatant over time with a spectrofluorimeter (SAFAS Genius XC spectrofluorimeter, Monaco) with excitation/emission wavelength of 488/517 nm. Three samples were studied for each conditions.
In view of the absence of specific properties of PAR30 in solution compared to shorter or longer PAR chains, the antimicrobial abilities of PAR30/HA films should be related to the film property by itself. In this context, the inventors investigated if the bactericidal property of the film is due to the release of PAR30 chains from the multilayer into the solution or if bacteria need to come in contact with the film to be killed. For this purpose two types of experiments were performed. Using fluorescently labelled PAR30 chains we first determined the release of PAR30 chains into the solution containing solely MH medium with and without S. aureus. […] Finally, we also performed an experiment where bacteria were brought in contact with a (PAR30/HA)24 film for 24 hours. […]

[5] = PAR concentrations up to 0.04 mg·mL^−1

Row | Substance | MIC of a well-known antimicrobial peptide, compared with MIC100 of PAR [1] [µM] | S. aureus growth inhibition in solution (in words) ([2]; PAR 0.02 mg·mL^−1) | S. aureus growth inhibition in solution (in words) [2, 5] | concentration needed for a similar effect (about 90% inhibition) ([2]; in solution, S. aureus) | times less active than PAR100 or PAR200 chains (from MICs in solution) ([2]; hydrochloride) [times] | proportion of mobile PAR chains (mobile fraction) [3] | S. aureus growth inhibition in solution ([2]; PAR 0.01 mg·mL^−1, hydrochloride) [%] | MIC90 ([2]; in solution, S. aureus) | PAR30 released into solution [4] | bacterial growth inhibition in solution [2] | S. aureus growth inhibition in solution ([2]; PAR 0.02 mg·mL^−1)
1 | cateslytin | 30 |  |  |  |  |  |  |  |  |  | 
2 | poly(I-arginine hydrochloride) [PAR10] |  | quasi total inhibition | totally inhibited | about 10 μM | 10 | ~90% |  |  |  |  | 
3 | poly(I-arginine hydrochloride) [PAR30] |  | quasi total inhibition | totally inhibited | about 10 μM | 2 |  | 100 | about 2 μM | about 0.18 μM |  | 
4 | poly(I-arginine hydrochloride) [PAR100] |  | quasi total inhibition | totally inhibited |  |  | 63% and 70% |  |  |  | about 90% | 
5 | poly(I-arginine hydrochloride) [PAR200] |  |  | totally inhibited |  |  | about 12% |  |  |  | about 90% | about 45%
